# Data taken from PubChem BioAssay (NCI).
# Several values for one entry are separate records, joined by “and”; a condition that tells them apart may be missing. Equal entries are not always repeated.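 All cell lines were grown in 96-well plates and treated with compound for 48 hours. Here, GI50 denotes the concentration required for 50% inhibition of growth. TGI is the concentration that stops growth completely.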
# Columns and labels:
# Assay in all cases: NCI-60 cell line screen, 48 h
# CCRF-CEM leukemia = system: CCRF-CEM leukemia
# COLO 205 colon = system: COLO 205 colon
# HL-60(TB) leukemia = system: HL-60(TB) leukemia
# HOP-92 NSCLC = system: HOP-92 NSCLC
# IGROV1 ovarian = system: IGROV1 ovarian
# MALME-3M melanoma = system: MALME-3M melanoma
# MCF7 breast = system: MCF7 breast
# MOLT-4 leukemia = system: MOLT-4 leukemia
# NCI-H460 lung = system: NCI-H460 lung
# PC-3 prostate = system: PC-3 prostate
# RXF 393 renal = system: RXF 393 renal
# SF-295 CNS = system: SF-295 CNS
# SK-MEL-28 melanoma = system: SK-MEL-28 melanoma
Compound,TGI (CCRF-CEM leukemia) [µM],TGI (COLO 205 colon) [µM],TGI (HL-60(TB) leukemia) [µM],TGI (HOP-92 NSCLC),TGI (IGROV1 ovarian) [µM],TGI (MALME-3M melanoma) [µM],TGI (MCF7 breast) [µM],TGI (MOLT-4 leukemia),TGI (NCI-H460 lung) [µM],TGI (PC-3 prostate) [µM],TGI (RXF 393 renal) [µM],TGI (SF-295 CNS),TGI (SK-MEL-28 melanoma) [µM],GI50 (CCRF-CEM leukemia),GI50 (HL-60(TB) leukemia) [µM],GI50 (IGROV1 ovarian),GI50 (MOLT-4 leukemia),GI50 (NCI-H460 lung) [µM],GI50 (PC-3 prostate) [µM],GI50 (SK-MEL-28 melanoma) [µM]
O=C(c1cccs1)N(C(=S)OCCOc1ccccc1)c1ccccc1,59.4,42.4,48,45.9 µM,79.2,69.9,44.6,67.9 µM,> 100,> 100,51.9,71 µM,55.9,,,,,,,
Cc1ccc(-c2nc(N/N=C/C=C/c3ccccc3)c3ccccc3n2)cc1,> 100,> 100,> 100,> 100 µM,> 100,> 100,75.9,> 100 µM,> 100,> 100,99.6,> 100 µM,> 100,,,,,,,
Nc1ncnc2oc(C3OC(COC(=O)c4ccccc4)C(OC(=O)c4ccccc4)C3OC(=O)c3ccccc3)nc12 (stereo unspecified),> 100,> 100,> 100,> 100 µM,> 100,> 100,> 100,> 100 µM,> 100,> 100,> 100,> 100 µM,> 100,,,,,,,
C=C1CC(c2ccc(OCCCN3C(=O)c4ccccc4C3=O)cc2)OC1=O (stereo unspecified),4.56,6.37,5.22,2.99 µM,4.57,7.27,6.46,4.06 µM,8.42,10.9,3.65,25.5 µM,3.98,,,,,,,
Clc1cc(Cl)cc(N=C/C=C/Nc2cc(Cl)cc(Cl)c2)c1,60.9,30.2,49.7,> 100 µM,55.8,> 100,27.2,49.6 µM,43.5,36.6,36.8,51.4 µM,47,,,,,,,
CC1=NC(=Cc2ccccc2O)C(=O)N1n1c(-c2ccccc2)nc2ccccc2c1=O,> 100,> 100,> 100,> 100 µM,> 100,> 100,74.2,> 100 µM,> 100,> 100,> 100,> 100 µM,> 100,,,,,,,
CCOC(=O)C1(C(=O)OCC)[C@@H](c2ccccc2)C2=NO[C@@H]3CCC[C@H]1[C@H]23,78.7,> 100,> 100,> 100 µM,> 100,> 100,> 100,> 100 µM,> 100,> 100,> 100,> 100 µM,> 100,,,,,,,
CCOC(=O)C(C(=O)OCC)=C1NC2(c3ccccc3Nc3ccccc32)C(C#N)S1 (stereo unspecified),> 100,19.4,55.5,15.6 µM,25.6,29,13.3,10.1 µM,15.2,16.8,33,40 µM,50.7,,,,,,,
CCOC(=O)N1N=C(/C(C)=N/OC)C(C)S1=O (stereo unspecified),> 100,> 100,> 100,> 100 µM,> 100,> 100,> 100,> 100 µM,> 100,> 100,> 100,> 100 µM,> 100,,,,,,,
CC(=O)NC1C(OCc2ccccc2)OC(CO)C(O)C1OC(C)C(=O)NC(C)C(=O)NC(CCC(=O)NCCCCNc1c2ccccc2nc2cccc([N+](=O)[O-])c12)C(N)=O (stereo unspecified),0.578,0.0506,0.207,0.101 µM,0.612,0.131,0.652,3.13 µM,0.0363,0.663,0.0676,1.66 µM,0.409,,,,,,,
c1cc2nnc1SCCCSc1ccc(nn1)SCCCS2,> 100,> 81.3,> 92.4,> 100 µM,> 81.3,> 100,> 100,> 100 µM,> 100,> 100,75.5,> 100 µM,> 100,,,,,,,
CSC(=S)Nc1cccc(C)n1,> 100,> 100,> 100,> 100 µM,> 100,> 100,> 100,> 100 µM,> 100,> 100,> 100,> 100 µM,> 100,,,,,,,
CCOC(=O)C(=CNc1ccc(NC2=NCC(C)S2)cc1)C(=O)OCC (stereo unspecified),1.84,> 100,16.4,> 86.7 µM,> 100,96.2,> 100,30 µM,> 100,62.9,97.1,> 100 µM,> 100,,,,,,,
O=C(/C=C/c1ccc(Oc2cc(C(=O)/C=C/c3ccc(O)cc3)c(O)cc2O)cc1)c1ccc(O)cc1O,10.8,6.08,> 100,55.3 µM,11.3,26.6,19.5,> 100 µM,29.8,24.9,24.8,18.5 µM,7.07,,,,,,,
O=c1[nH]c(=S)nc2nc3c4ccc[nH]c4c4ccccc4c3nc12,> 100,> 100,66.1,> 100 µM,> 100,> 100,> 100,> 100 µM,> 100,> 100,> 100,> 100 µM,> 100,,,,,,,
NC(=O)C(=CNC(=S)Nc1ccccc1)C(N)=O,> 100,> 100,> 100,> 100 µM,> 100,> 100,> 100,> 100 µM,> 100,> 100,> 100,> 100 µM,> 100,,,,,,,
C[N+](C)(C)c1ncnc2c1ncn2C1CC(O)C(CO)O1 (stereo unspecified),> 100,> 100,> 100,> 100 µM,> 100,> 100,> 100,> 100 µM,> 100,> 100,> 100,> 100 µM,> 100,,,,,,,
N#Cc1nc(-c2ccco2)oc1N,> 10,> 10,> 10,> 10 µM,> 10,> 10,> 10,> 10 µM,> 10,> 10,> 10,> 10 µM,> 10,,,,,,,
CCOC(=O)c1c(C)n(-c2ccc(Cl)cc2)c2c1cc(O)c1[nH]c3c(c12)CCCC3,> 100,> 100,> 100,> 100 µM,> 100,> 100,> 100,> 100 µM,> 100,> 100,> 100,> 100 µM,> 100,,,,,,,
O=[N+]([O-])c1ccc(C(=S)Nc2ccccc2)o1,11.4,2.79,6.35,31.8 µM,17.8,9.3,5.57,11.7 µM,12.1,4.63,15.2,15.5 µM,19.3,,,,,,,
Oc1[nH]c2ccccc2c1N=NC(=S)Nc1ccccc1Cl,49.9,> 100,18.7,56.2 µM,29.8,21.8,33.4,4.95 µM,52.2,> 100,31.4,20.9 µM,75.6,,,,,,,
CCOP1(=O)CC(C)=C(Cl)C(O)C1 (stereo unspecified),> 100,> 100,> 100,> 100 µM,> 100,> 100,> 100,> 100 µM,> 100,> 100,> 100,> 100 µM,> 100,,,,,,,
O=[N+]([O-])c1ccc(OC2CC3C4C=CC3C2C4)c([N+](=O)[O-])c1 (stereo unspecified),> 100,> 100,> 100,> 100 µM and 29.9 µM,> 100,> 100,> 100,> 100 µM and 25.7 µM,> 100,> 100,> 100,49.9 µM and > 31.6 µM,> 100,> 100 µM and 24 µM,69.7,91.5 µM and > 31.6 µM,> 100 µM and 14.1 µM,> 100,> 100,> 100
